Results on 16 compounds are retold here after patent US20250152564A1, “PROPYLENE KETONE-CONTAINING BIOINHIBITOR, PREPARATION METHOD THEREFOR, AND USE THEREOF” (SHANGHAI HANSOH BIOMEDICAL CO., LTD., priority 2022, published 2025).

One test addresses FGFR2 V564F (Homo sapiens (Human), UniProt P21802, V564F). Briefly: TR-FRET kinase inhibition assay, FGFR2 V564F. The test is classed as biochemical. The conditions noted are these: ATP Km concentration (20 μM). As to the method:
(§1) To measure the IC50 values of the compounds against FGFR1, FGFR2, FGFR3, FGFR4, and FGFR2 V564F at ATP Km concentrations by TR-FRET method.
(§2) TR-FRET (time-resolved fluorescence resonance energy transfer) method was used to detect the inhibitory activity of the compounds on FGFR1, FGFR2, FGFR3, FGFR4, and FGFR2 V564F kinase region fragments. The highest detection concentration of the compounds in 5 kinase experiments was 1000 nM, which was diluted in 3 folds, with a total of 11 concentrations (1000 nM to 0.017 nM). A kinase buffer (50 mM HEPES pH 7.5, 1 mM EGTA, 10 mM MgCl2, 2 mM DTT, and 0.01% Tween-20) was used to prepare 4× enzyme solution, 4× compound solutions diluted in gradient, and a 2×ATP/Peptide substrate solution. To a 384-well plate, 2.5 μL of enzyme solution and 2.5 μL of diluted […] compound solution were added, and 5 μL of 2×ATP/Peptide substrate solution was then added. After reacting at room temperature for 60 minutes for FGFR1, FGFR2, FGFR3, and FGFR2 V564F kinases, and 120 minutes for FGFR4 kinase, 10 μL of a 2× termination and detection mixed liquid prepared with 1×LANCE detection buffer with an EDTA concentration of 20 mM and a Europium-anti-phosphotyrosine (PT66) concentration of 2 nM was added to each well of the plate. After reacting at room temperature for 60 minutes for FGFR1, FGFR2, FGFR3, and FGFR4, and 30 minutes for FGFR2 V564F, the fluorescence signal value in each well of the plate was measured by a microplate reader.
(§3) 1) Inhibition rate (%): Calculation was performed on the raw data (665 nm/620 nm reading ratio) according to the following formula to obtain the inhibition rate. Inhibition rate %=[(mean value in positive control well−value in sample well)/(mean value in positive control well−mean value in negative control well)]×100, wherein the positive control well was a reaction well without a compound […], and the negative control well was a reaction wells without an enzyme.
(§4) 2) Curve fitting: Log(inhibitor) vs. response—Variable slope (four parameters) in GraphPad Prism 6 was used for fitting equation analysis of the compound concentration and the corresponding inhibition rate, and the curve was fitted to obtain the IC50 values of the compounds.
For orientation: TR-FRET usually uses a lanthanide donor and a delayed reading to cut background.

Another test has as its target FGFR2 (Homo sapiens (Human), UniProt P21802). Description: TR-FRET kinase inhibition assay, FGFR2. The conditions noted are these: ATP Km concentration (30 μM). Format: biochemical. As for the experimental part:
as §1, §2, §3, §4

Test [1] deals with BaF3 FGFR2-BICC1 V564F cells. Briefly: CellTiter-Glo cell proliferation inhibition, BaF3 FGFR2-BICC1 V564F. The conditions noted are these: Mus musculus, 72 h, read-out: BaF3 FGFR2-BICC1 V564F inhibitory activity IC50. The test is classed as cell-based. As to the method: To evaluate inhibitory effects of the compounds on the proliferation of NCI-H716, SNU-16 and BaF3-FGFR2-BICC1 V564F cells by cell proliferation inhibition experiments.
CellTiter-Glo method was used to detect inhibitory effects of the compounds on the proliferation of NCI-H716, SNU-16 and BaF3 FGFR2-BICC1 V564F cells. The highest detection concentration of the compounds was 1000 nM, which was diluted in 3 folds, with a total of 9 concentrations (1000 nM to 0.15 nM). After the cells were plated at an appropriate density, compounds were added the next day and incubated for 72 h before detection using the […] detection kit.
1) Inhibition rate (%): Inhibition rate %=[(mean value in positive control well−value in sample well)/(mean value in positive control well−mean value in negative control well)]×100, wherein the positive control well was a reaction well without a compound […], and the negative control well was a reaction wells without an enzyme.
as §4

Chain of FGFR2 (P21802 481-770): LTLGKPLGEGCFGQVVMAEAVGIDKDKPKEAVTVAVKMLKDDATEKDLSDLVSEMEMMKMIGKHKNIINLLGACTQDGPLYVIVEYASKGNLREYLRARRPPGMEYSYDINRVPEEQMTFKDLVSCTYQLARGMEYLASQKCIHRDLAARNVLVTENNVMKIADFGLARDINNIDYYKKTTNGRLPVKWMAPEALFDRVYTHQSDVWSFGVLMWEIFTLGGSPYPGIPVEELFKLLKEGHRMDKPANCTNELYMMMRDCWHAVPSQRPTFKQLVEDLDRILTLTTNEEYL
Chain of FGFR2 V564F (P21802 481-770 V564F): as the sequence (P21802 481-770) above, with V84F counted along it

Consider `C=CC(=O)N1CC[C@H](n2nc(C#Cc3ccc4c(c3)ncn4C3CC3)c3c(N)ncc(C(=O)C(C)C)c32)C1` [Example 40], for which 1.9 nM corresponded to half-maximal inhibition against FGFR2 V564F (IC50).
`C=CC(=O)N1CC[C@H](n2nc(C#Cc3ccc4c(c3)ncn4CC)c3c(N)ncc(C(=O)C(C)C)c32)C1` [Example 59]: the concentration for half-maximal inhibition (IC50) (as a rule, the concentration needed to halve the response being measured) at FGFR2 was 3.4 nM; in test [1] it was 4 nM; against FGFR2 V564F, 1.1 nM.
`C=CC(=O)N1CC[C@H](n2nc(C#Cc3ccc4oc(C5CC5)nc4c3)c3c(N)ncnc32)C1` [B, reference compound]: the 50% inhibitory concentration (IC50) in test [1] was 11.5 nM; on FGFR2 V564F, 18.4 nM.
For the compound `C=CC(=O)N1CC[C@H](n2nc(C#Cc3cc4ncn(C5CC5)c4cc3Cl)c3c(N)ncc(-c4ccn(C)n4)c32)C1` [Example 43, (S)-1-(3-(4-amino-3-((6-chloro-1-cyclopropyl-1H-benzo[d]imidazol-5-yl)ethynyl)-7-(1-methyl-1H-pyrazol-3-yl)-1H-pyrazolo[4,3-c]pyridin-1-yl)pyrrolidin-1-yl)prop-2-en-1-one], 1.1 nM corresponded to half-maximal inhibition at FGFR2 V564F (IC50).
`C=CC(=O)N1CC[C@H](n2nc(C#Cc3cc4ncn(C)c4cc3F)c3c(N)ncc(C4CC4)c32)C1` [Example 20, (S)-1-(3-(4-amino-7-cyclopropyl-3-((6-fluoro-1-methyl-1H-benzo[d]imidazol-5-yl)ethynyl)-1H-pyrazolo[4,3-c]pyridin-1-yl)pyrrolidin-1-yl)prop-2-en-1-one] had a 50% inhibitory concentration (IC50) against FGFR2 V564F of 2.8 nM.
As for `C=CC(=O)N1CC[C@H](n2nc(C#Cc3cc4ncn(C5CC5)c4cc3F)c3c(N)ncc(C(=O)C(C)C)c32)C1` [Example 50], the IC50 was determined as 2.6 nM at FGFR2, 2.1 nM in test [1] and 1 nM against FGFR2 V564F.
In the case of `C=CC(=O)N1CC[C@H](n2nc(C#Cc3cc4ncn(C)c4cc3F)c3c(N)ncc(-c4cscn4)c32)C1` [Example 14, 1-[(3S)-3-[4-amino-3-[2-(6-fluoro-1-methyl-benzo[d]imidazol-5-yl)ethynyl]-7-thiazol-4-yl-pyrazolo[4,3-c]pyridin-1-yl]pyrrolidin-1-yl]-2-propen-1-one], the IC50 at FGFR2 turned out to be 2.4 nM; on FGFR2 V564F it was 1.3 nM.
The compound `C=CC(=O)N1CC[C@H](n2nc(C#Cc3ccc4c(c3)ncn4C3CC3)c3c(N)ncc(-c4ccn(C)n4)c32)C1` [Example 42, (S)-1-(3-(4-amino-3-((1-cyclopropyl-1H-benzo[d]imidazol-5-yl)ethynyl)-7-(1-methyl-1H-pyrazol-3-yl)-1H-pyrazolo[4,3-c]pyridin-1-yl)pyrrolidine-1-methyl)prop-2-en-1-one] returned an IC50 against FGFR2 V564F of 3.9 nM.
Turning to `C=CC(=O)N1CC[C@H](n2nc(C#Cc3ccc4c(c3)ncn4CC)c3c(N)ncc(C(C)=O)c32)C1` [Example 56, (S)-1-(3-(7-acetyl-4-amino-3-((1-ethyl-1H-benzo[d]imidazol-5-yl)ethynyl)-1H-pyrazolo[4,3-c]pyridin-1-yl)pyrrolidine-1-methyl)prop-2-en-1-one], the IC50 turned out to be 1.8 nM against FGFR2, 3.5 nM in test [1] and 0.7 nM against FGFR2 V564F.
Take `C=CC(=O)N1CC[C@H](n2nc(C#Cc3cc4ncn(C5CC5)c4cc3F)c3c(N)ncc(C4CC4)c32)C1` [Example 52, (S)-1-(3-(4-amino-7-cyclopropyl-3-((1-cyclopropyl-6-fluoro-1H-benzo[d]imidazol-5-yl)alkynyl)-1H-pyrazolo[4,3-c]pyridin-1-yl)pyrrolidin-1-yl)prop-2-en-1-one]: the IC50 at FGFR2 V564F came out at 1.8 nM.
`C=CC(=O)N1CC[C@H](n2nc(C#Cc3cc4ncn(C)c4cc3F)c3c(N)nccc32)C1` [A, reference compound]: the figures for the IC50 (against FGFR2; in test [1]; on FGFR2 V564F) were 12.8 nM, 7.4 nM and 6.1 nM, respectively.
On to `C=CC(=O)N1CC[C@H](n2nc(C#Cc3ccc4c(c3)nc(C)n4C3CC3)c3c(N)ncc(C(C)=O)c32)C1` [Example 53, (S)-1-(3-(7-acetyl-4-amino-3-((1-cyclopropyl-2-methyl-1H-benzo[d]imidazol-5-yl)ethynyl)-1H-pyrazolo[4,3-c]pyridin-1-yl)pyrrolidin-1-yl)prop-2-en-1-one], for which the results for the IC50 (on FGFR2; in test [1]; at FGFR2 V564F) were 3.5 nM, 4.9 nM and 1.9 nM, respectively.
On to `C=CC(=O)N1CC[C@H](n2nc(C#Cc3cc4ncn(C)c4cc3Cl)c3c(N)ncc(C(C)=O)c32)C1` [Example 67, (S)-1-(3-(7-acetyl-4-amino-3-((6-chloro-1-methyl-1H-benzo[d]imidazol-5-yl)ethynyl)-1H-pyrazolo[4,3-c]pyridin-1-yl)pyrrolidin-1-yl)prop-2-en-1-one], for which the half-inhibitory concentration (IC50) (in test [1]; at FGFR2 V564F) was 1.6 nM throughout.
As to `C=CC(=O)N1CC[C@H](n2nc(C#Cc3cc4ncn(CC)c4cc3F)c3c(N)ncc(-c4cscn4)c32)C1` [Example 62, (S)-1-(3-(4-amino-3-((1-ethyl-6-fluoro-1H-benzo[d]imidazol-5-yl)ethynyl)-7-(thiazol-4-yl)-1H-pyrazolo[4,3-c]pyridin-1-yl)pyrrolidin-1-yl)prop-2-en-1-one], the values for the half-maximal inhibitory concentration (IC50) against FGFR2 and at FGFR2 V564F were 2.4 nM and 1.2 nM, respectively.
On to `C=CC(=O)N1CC[C@H](n2nc(C#Cc3cc4ncn(C5CC5)c4cc3Cl)c3c(N)ncc(C(=O)C(C)C)c32)C1` [Example 47], for which the IC50 worked out at 0.5 nM in test [1] and 1 nM against FGFR2 V564F.
`C=CC(=O)N1CC[C@H](n2nc(C#Cc3cc4ncn(C5CC5)c4cc3F)c3c(N)ncc(C)c32)C1` [Example 51, (S)-1-(3-(4-amino-3-((1-cyclopropyl-6-fluoro-1H-benzo[d]imidazol-5-yl)ethynyl)-7-methyl-1H-pyrazolo[4,3-c]pyridin-1-yl)pyrrolidin-1-yl)prop-2-en-1-one] returned an IC50 at FGFR2 V564F of 3.3 nM.
